Source: patent US20060030603A1, “Novel aryl urea analogs and use thereof as antibacterial agents” (priority 2004, published 2006)
In brackets after ≈: the same amount, converted by molar mass. Read-outs that look alike come from different tables or passages of the source.

System: S. aureus ATCC 13709
Assay: MIC assay, S. aureus
Format: cell-based
Description: In vitro structure/activity relationship (“SAR”) tests were performed according to the following procedure: MIC assays were carried out in a 150 μL volume in duplicate in 96-well clear flat-bottom plates. The bacterial suspension from an overnight culture growth in the appropriate medium was added to a solution of test compound in 0.5% DMSO in water. Final bacterial inoculum was approximate 10^3-10^4 CFU/well. The percentage growth of the bacteria in the test wells relative to that observed for a control well containing no compound was determined by measuring absorbance at 595 nm (A595) after 20-24 h at 37° C. […] The bacterial strains used for the assays include S. aureus ATCC 13709, S. pyogenes ATCC 49399, E. faecalis ATCC 29212, E. faecium ATCC 6569, E. coli ATCC 25922, K. pneumoniae ATCC 13383, P. vulgaris ATCC 8427, P. aeruginosa ATCC 25416. The results of the in vitro SAR tests are in Tables 1-3.

[1] = Table 1, thiourea/urea analogs, acetate salts
[2] = Staphylococcus aureus, ATCC13709, read-out: MIC S. aureus

| Structure (SMILES) | MIC S. aureus [1] | other results |
| --- | --- | --- |
| Fc1ccccc1NC(=S)NCCCNCc1cc(Br)cc(Br)c1 [8a] | 25 to 50 µM | – |
| COc1ccccc1NC(=S)NCCCNCc1cc(Br)cc(Br)c1 [8c] | – | MIC (Table 1, thiourea/urea analogs, acetate salts, read-out: MIC S. aureus): >100 µM |
| CSc1ccccc1NC(=S)NCCCNCc1cc(Br)cc(Br)c1 [8d] | 50 to 100 µM | – |
| Fc1ccc(NC(=S)NCCCNCc2cc(Br)cc(Br)c2)c(F)c1F [8e] | 6 to 12 µM | – |
| Fc1cccc(NC(=S)NCCCNCc2cc(Br)cc(Br)c2)c1 [8f] | 12 to 25 µM | – |
| S=C(NCCCNCc1cc(Br)cc(Br)c1)Nc1cccc(Cl)c1 [8g] | 6 to 12 µM | – |
| S=C(NCCCNCc1cc(Br)cc(Br)c1)Nc1cccc(Br)c1 [8h] | 6 to 12 µM | – |
| FC(F)(F)c1cccc(NC(=S)NCCCNCc2cc(Br)cc(Br)c2)c1 [8i] | 6 to 12 µM | – |
| COc1cccc(NC(=S)NCCCNCc2cc(Br)cc(Br)c2)c1 [8j] | 25 to 50 µM | – |
| S=C(NCCCNCc1cc(Br)cc(Br)c1)Nc1ccc(Cl)c(Cl)c1 [8k, 1-[3-(3,5-Dibromo-benzylamino)-propyl]-3-(3,4-dichloro-phenyl)-thiourea] | – | MIC [2]: 3 to 6 µM (≈ 1.58 to 3.16 µg/mL) |
| Fc1ccc(NC(=S)NCCCNCc2cc(Br)cc(Br)c2)cc1 [8l] | 12 to 25 µM | – |
| S=C(NCCCNCc1cc(Br)cc(Br)c1)Nc1ccc(Cl)cc1 [8m] | 6 to 12 µM | – |
| S=C(NCCCNCc1cc(Br)cc(Br)c1)Nc1ccc(Br)cc1 [8n] | 12 to 25 µM | – |
| S=C(NCCCNCc1cc(Br)cc(Br)c1)Nc1ccc(I)cc1 [8o] | 12 to 25 µM | – |
| FC(F)(F)c1ccc(NC(=S)NCCCNCc2cc(Br)cc(Br)c2)cc1 [8p] | 6 to 12 µM | – |
| O=[N+]([O-])c1ccc(NC(=S)NCCCNCc2cc(Br)cc(Br)c2)cc1 [8q] | 12 to 25 µM | – |
| Cc1ccc(NC(=S)NCCCNCc2cc(Br)cc(Br)c2)cc1 [8r] | 12 to 25 µM | – |
| N#Cc1ccc(NC(=S)NCCCNCc2cc(Br)cc(Br)c2)cc1 [8s] | 25 to 50 µM | – |
| COc1ccc(NC(=S)NCCCNCc2cc(Br)cc(Br)c2)cc1 [8t] | 25 to 50 µM | – |
| COc1ccccc1NC(=O)NCCCNCc1cc(Br)cc(Br)c1 [9a] | 25 to 50 µM | – |
| O=C(NCCCNCc1cc(Br)cc(Br)c1)Nc1cccc(C(F)(F)F)c1 [9b] | 6 to 12 µM | – |
| O=C(NCCCNCc1cc(Br)cc(Br)c1)Nc1ccc(Cl)cc1 [9c] | 6 to 12 µM | – |
| O=C(NCCCNCc1cc(Br)cc(Br)c1)Nc1ccc(C(F)(F)F)cc1 [9d, 1-[3-(3,5-Dibromo-benzylamino)-propyl]-3-(4-trifluoromethyl-phenyl)-urea] | – | MIC [2]: 3 to 6 µM (≈ 1.53 to 3.05 µg/mL); MIC S. aureus (Table 2, benzylamino group modified analogs): 3 to 6 µM |
